Counter-ions that a name gives are not always drawn.
Experiments:
[1] = biological target: T1, Axl (Homo sapiens, UniProt P30530); assay: Phospho-Akt in-cell Western assay (inhibition of Axl activity); format: cell-based
T1 construct: endogenous in cells; host or cells: HeLa cells
T1 sequence (P30530 26-894): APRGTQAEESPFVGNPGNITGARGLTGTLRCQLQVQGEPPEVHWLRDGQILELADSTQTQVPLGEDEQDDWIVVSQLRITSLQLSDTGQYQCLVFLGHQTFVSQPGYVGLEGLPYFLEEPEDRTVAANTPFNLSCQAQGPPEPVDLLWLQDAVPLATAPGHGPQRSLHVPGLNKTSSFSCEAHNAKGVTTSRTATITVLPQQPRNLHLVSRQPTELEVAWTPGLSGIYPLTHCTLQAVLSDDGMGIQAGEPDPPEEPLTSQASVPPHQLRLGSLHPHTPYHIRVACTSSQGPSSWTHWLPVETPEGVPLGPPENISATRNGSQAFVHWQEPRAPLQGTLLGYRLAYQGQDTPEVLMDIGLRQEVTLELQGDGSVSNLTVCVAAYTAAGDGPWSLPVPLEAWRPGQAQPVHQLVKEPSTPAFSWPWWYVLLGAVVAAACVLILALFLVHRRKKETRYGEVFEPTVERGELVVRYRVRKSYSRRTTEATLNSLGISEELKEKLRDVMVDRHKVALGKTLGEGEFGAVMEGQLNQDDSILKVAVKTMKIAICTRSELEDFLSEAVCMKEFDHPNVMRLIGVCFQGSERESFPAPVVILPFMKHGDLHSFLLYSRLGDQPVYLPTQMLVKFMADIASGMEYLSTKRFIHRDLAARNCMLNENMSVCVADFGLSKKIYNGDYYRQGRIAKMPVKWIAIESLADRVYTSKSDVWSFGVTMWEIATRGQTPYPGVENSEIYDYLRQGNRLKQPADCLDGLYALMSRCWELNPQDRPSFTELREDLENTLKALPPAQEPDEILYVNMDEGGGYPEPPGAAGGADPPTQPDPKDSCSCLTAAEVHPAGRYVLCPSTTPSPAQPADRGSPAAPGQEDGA
Summary of the method: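 HeLa cells on poly-L-lysine, starved 24 h in 0.5% FCS DMEM with Axl/Fc 500 ng/mL, pre-treated with compound 1 h at 37° C. Axl stimulated 5 min by anti-Axl/anti-mouse antibody cross-linking. Fixed cells probed with anti-phospho-Akt and HRP secondary, chemiluminescence read.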

[2] = Table 3, Hela cells, Axl antibody cross-linking stimulation, phospho-Akt chemiluminescence
[3] = inhibition of Axl activity, Table 1
[4] = Table 5, Hela cells, Axl antibody cross-linking stimulation, phospho-Akt chemiluminescence
[5] = inhibition of Axl activity, phospho-Akt in-cell Western assay, Table 1

SMILES: Nc1nc(Nc2ccccc2)nn1C(=O)/C=C/c1ccco1 [compound 141, 5-amino-3-phenylamino-1-(trans-2-(furan-2-yl)ethenyl)carbonyl-1H-1,2,4-triazole]
- IC50 [1, 2]: 1 to 10 µM
- melting point: 212 to 216 °C

SMILES: CC(C)Oc1ccc(C(=O)n2nc(Nc3cccc(O)c3)nc2N)cc1 [(Ia-13), 5-amino-3-[3-(hydroxy)phenylamino]-1-(4-(iso-propoxy)phenyl)carbonyl-1H-1,2,4-triazole]
- IC50 [1, 3]: 1 to 10 µM
- melting point: 204.2 to 211.9 °C

SMILES: CC(C)Oc1ccc(C(=O)n2nc(Nc3cccc(OCCN4CCOCC4)c3)nc2N)cc1 [(Ia-22)]
- IC50 [1, 3]: 1 to 10 µM
- melting point: 152 to 153.7 °C

SMILES: Cc1cccc(C(=O)n2nc(Nc3cccc(OCC#N)c3)nc2N)c1 [(Ia-9), 5-amino-3-[3-(cyanomethoxy)phenylamino]-1-(3-(methyl)phenyl)carbonyl-1H-1,2,4-triazole]
- IC50 [1, 3]: > 20 µM
- melting point: 220 to 224.4 °C

SMILES: Nc1nc(Nc2cccc(OCCN3CCOCC3)c2)nn1C(=O)c1ccccc1 (as salt: salt) [(Ia-26), 5-amino-3-[3-[2-(morpholin-4-yl)ethoxy]phenylamino]-1-phenylcarbonyl-1H-1,2,4-triazole, hydrogen chloride salt]
- melting point: 236.6 to 242.1 °C

SMILES: CC(C)Oc1ccc(C(=O)n2nc(Nc3cccc(OCc4ccccc4)c3)nc2N)cc1 [(Ia-25), 5-amino-3-[3-(benzyloxy)phenylamino]-1-(4-(iso-propoxy)phenyl)carbonyl-1H-1,2,4-triazole]
- IC50 [1, 3]: > 20 µM
- melting point: 188.7 to 189.9 °C

SMILES: Cc1cccc(C(=O)n2nc(Nc3cccc(OCC(=O)N4CCNCC4)c3)nc2N)c1 [(Ia-20), 5-amino-1-(3-methylphenyl)carbonyl-3-[3-(piperazin-4-ylcarbonylmethoxy)phenyl]amino-1H-1,2,4-triazole]
- IC50 [1, 3]: 1 to 10 µM
- melting point: 169 to 171 °C

SMILES: CC(C)Oc1cccc(C(=O)n2nc(Nc3cccc(OCc4ccccc4)c3)nc2N)c1 [(Ia-17), 5-amino-3-[3-(benzyloxy)phenylamino]-1-(3-(iso-propoxy)phenyl)carbonyl-1H-1,2,4-triazole]
- IC50 [1, 3]: > 20 µM
- melting point: 131.1 to 132.4 °C

SMILES: C=CCN(C)Cc1cc2cc(Nc3nc(N)n(C(=O)c4cccc(C)c4)n3)ccc2o1 [(Ia-28), 5-amino-3-(2-((allyl(methyl)amino)methyl)benzofuran-5-yl)amino-1-(3-methylphenyl)carbonyl-1H-1,2,4-triazole]
- IC50 [1, 4]: 1 to 10 µM
- melting point: 128 to 131 °C

SMILES: CNCc1cc2cc(Nc3nc(N)n(C(=O)c4cccc(C)c4)n3)ccc2o1 [(Ia-29), 5-amino-3-(2-((methylamino)methyl)benzofuran-5-yl)amino-1-(3-methylphenyl)carbonyl-1H-1,2,4-triazole]
- IC50 [1, 4]: < 1 µM
- melting point: 128 to 131 °C

SMILES: CC(C)Oc1ccc(C(=O)n2nc(Nc3cccc(OCCC4OCCO4)c3)nc2N)cc1 [(Ia-24), 5-amino-3-[3-[2-(1,3-dioxolan-2-yl)ethoxy]phenylamino]-1-(4-(iso-propoxy)phenyl)carbonyl-1H-1,2,4-triazole]
- IC50 [1, 3]: 1 to 10 µM
- melting point: 144.4 to 145.4 °C

SMILES: Cc1cccc(C(=O)n2nc(Nc3cccc(OCCN4CCOCC4)c3)nc2N)c1 [(Ia-27)]
- IC50 [1, 3]: 1 to 10 µM
- melting point: 60 to 63 °C

SMILES: CC(C)Oc1ccc(C(=O)n2nc(Nc3ccc(OCc4ccccc4)cc3)nc2N)cc1 [(Ia-10), 5-amino-3-[4-(benzyloxy)phenylamino]-1-(4-(iso-propoxy)phenyl)carbonyl-1H-1,2,4-triazole]
- IC50 [1, 3]: > 20 µM
- melting point: 79 to 81 °C

SMILES: Cc1ccccc1C(=O)n1nc(Nc2cccc(OCC#N)c2)nc1N [(Ia-8), 5-amino-3-[3-(cyanomethoxy)phenylamino]-1-(2-(methyl)phenyl)carbonyl-1H-1,2,4-triazole]
- IC50 [1, 3]: > 20 µM
- melting point: 204.5 to 207.9 °C

SMILES: CC(C)Oc1ccc(C(=O)n2nc(Nc3ccc(O)cc3)nc2N)cc1 [(Ia-11), 5-amino-3-[4-(hydroxy)phenylamino]-1-(4-(iso-propoxy)phenyl)carbonyl-1H-1,2,4-triazole]
- IC50 [1, 3]: 1 to 10 µM
- melting point: 229 to 234 °C

SMILES: Cc1ccc(C(=O)n2nc(Nc3cccc(OCC#N)c3)nc2N)cc1 [(Ia-5), 5-amino-3-[3-(cyanomethoxy)phenylamino]-1-(4-(methyl)phenyl)carbonyl-1H-1,2,4-triazole]
- melting point: 236 to 241 °C

SMILES: CC(C)Oc1ccc(C(=O)n2nc(Nc3ccc(OCC#N)cc3)nc2N)cc1 [(Ia-12), 5-amino-3-[4-(cyanomethoxy)phenylamino]-1-(4-(iso-propoxy)phenyl)carbonyl-1H-1,2,4-triazole]
- IC50 [1, 3]: 1 to 10 µM
- melting point: 182.9 to 186.1 °C

SMILES: Cc1cccc(C(=O)n2nc(Nc3cccc(OCC(=O)N4CCN(C(=O)OC(C)(C)C)CC4)c3)nc2N)c1 [(Ia-19)]
- IC50 [1, 3]: > 20 µM
- melting point: 206 to 208 °C

SMILES: Cc1cccc(C(=O)n2nc(Nc3cccc(OCC(=O)NCCN4CCOCC4)c3)nc2N)c1 [(Ia-18), 5-amino-1-(3-methylphenyl)carbonyl-3-[3-[2-(4-morpholinyl)ethylaminocarbonylmethoxy]phenyl]amino-1H-1,2,4-triazole]
- IC50 [1, 3]: 1 to 10 µM
- melting point: 145 to 147 °C

SMILES: Nc1nc(Nc2ccccc2)n(C(=O)/C=C/c2ccco2)n1 [compound 140, 3-amino-5-phenylamino-1-(trans-2-(furan-2-yl)ethenyl)carbonyl-1H-1,2,4-triazole]
- IC50 ([1]; Table 4, Hela cells, Axl antibody cross-linking stimulation, phospho-Akt chemiluminescence): > 20 µM
- melting point: 190 to 193 °C

SMILES: Cc1ccc(C(=O)n2nc(Nc3ccc(OCCCN(C)C)cc3)nc2N)cc1 [compound 91, 5-amino-3-[4-[3-(dimethylamino)propoxy]phenylamino]-1-(4-(methyl)phenyl)carbonyl-1H-1,2,4-triazole]
- IC50 [1, 5]: 1 to 10 µM

SMILES: CC(C)Oc1ccc(C(=O)n2nc(NC3C4C=CC(C4)C3C(N)=O)nc2N)cc1 (stereo not drawn) [compound 354, 5-amino-1-(4-(iso-propoxy)phenyl)carbonyl-3-[(5-(aminocarbonyl)bicyclo[2.2.1]hept-2-en-6-yl)-amino]-1H-1,2,4-triazole]
- IC50 [1, 4]: > 20 µM

SMILES: Cc1ccc(NC(=O)n2nc(Nc3ccc(OCCN4CCCC4)cc3)nc2N)cc1 [compound 37, 5-amino-N-(4-methylphenyl)-3-[4-[2-(pyrrolidin-1-yl)ethoxy]phenylamino]-1H-1,2,4-triazole-1-carboxamide]
- IC50 ([1]; Table 7, Hela cells, Axl antibody cross-linking stimulation, phospho-Akt chemiluminescence): 1 to 10 µM

SMILES: COc1cc(Nc2nc(N)n(C(=O)c3ccc4cc[nH]c4c3)n2)ccc1OCCN1CCCC1 [compound 318, 5-amino-1-(1H-indol-6-yl)carbonyl-3-[3-methoxy-4-[2-(pyrrolidin-1-yl)ethoxy]phenylamino]-1H-1,2,4-triazole]
- IC50 [1, 2]: < 1 µM

SMILES: Nc1nc(Nc2ccc(Br)cc2)nn1C(=O)c1ccc(Cl)cc1 [compound 218, 5-amino-3-(4-bromophenyl)amino-1-(4-chlorophenyl)carbonyl-1H-1,2,4-triazole]
- IC50 [1, 3]: 1 to 10 µM

SMILES: Nc1nc(Nc2ccc3c(c2)OCCO3)nn1C(=O)c1ccccc1F [compound 99, 5-amino-3-(1,4-benzodioxan-6-yl)amino-1-(2-(fluoro)phenyl)carbonyl-1H-1,2,4-triazole]
- IC50 [1, 3]: 10 to 20 µM

SMILES: CC(C)Oc1cccc(C(=O)n2nc(Nc3ccc(OCCN4CCCCC4)cc3)nc2N)c1 [compound 168, 5-amino-1-(3-(iso-propoxy)phenyl)carbonyl-3-[4-[2-(piperidin-1-yl)ethoxy]phenylamino]-1H-1,2,4-triazole]
- IC50 [1, 3]: < 1 µM

SMILES: Nc1nc(Nc2ccc(OCCN3CCCC3)cc2)nn1C(=O)c1ccc(-n2ccnc2)cc1 [compound 268, 5-amino-1-(4-(imidazol-1-yl)phenyl)carbonyl-3-[4-[2-(pyrrolidin-1-yl)ethoxy]phenylamino]-1H-1,2,4-triazole]
- IC50 [1, 5]: < 1 µM

SMILES: COCCOCOc1cccc(Nc2nc(N)n(C(=O)c3cccc(C)c3)n2)c1 [compound 212, 5-amino-1-(3-methylphenyl)carbonyl-3-[3-[(2-methoxyethoxy)methoxy]phenylamino]-1H-1,2,4-triazole]
- IC50 [1, 3]: 1 to 10 µM

SMILES: CC(C)(C)Oc1cccc(C(=O)n2nc(Nc3ccc(OCCn4ccnc4)cc3)nc2N)c1 [compound 371, 5-amino-1-(3-(tert-butoxy)phenyl)carbonyl-3-[4-[2-(imidazol-1-yl)ethoxy]phenylamino]-1H-1,2,4-triazole]
- IC50 [1, 5]: 1 to 10 µM

Reference: US8389557B2, “Triazole derivatives useful as Axl inhibitors” (Rigel Pharmaceuticals, Inc., priority 2005, dated 2013)
